Legend:
BRM = BRM (Homo sapiens, UniProt P51531); test: ATPase catalytic activity assay (ADP-Glo), BRM; conditions: 30 nM BRM, 400 μM ATP; for IC50: BRM ATPase: IC50 (uM)
BRG-1 = BRG-1 (Homo sapiens, UniProt P51532); test: ATPase catalytic activity assay (ADP-Glo), BRG-1; conditions: for Emax: 1 h, read-out: BRG1 Max % Inhibition, ADP-Glo, 30 nM BRG-1, 400 μM ATP
BRG-1, sequence (P51532 whole entry): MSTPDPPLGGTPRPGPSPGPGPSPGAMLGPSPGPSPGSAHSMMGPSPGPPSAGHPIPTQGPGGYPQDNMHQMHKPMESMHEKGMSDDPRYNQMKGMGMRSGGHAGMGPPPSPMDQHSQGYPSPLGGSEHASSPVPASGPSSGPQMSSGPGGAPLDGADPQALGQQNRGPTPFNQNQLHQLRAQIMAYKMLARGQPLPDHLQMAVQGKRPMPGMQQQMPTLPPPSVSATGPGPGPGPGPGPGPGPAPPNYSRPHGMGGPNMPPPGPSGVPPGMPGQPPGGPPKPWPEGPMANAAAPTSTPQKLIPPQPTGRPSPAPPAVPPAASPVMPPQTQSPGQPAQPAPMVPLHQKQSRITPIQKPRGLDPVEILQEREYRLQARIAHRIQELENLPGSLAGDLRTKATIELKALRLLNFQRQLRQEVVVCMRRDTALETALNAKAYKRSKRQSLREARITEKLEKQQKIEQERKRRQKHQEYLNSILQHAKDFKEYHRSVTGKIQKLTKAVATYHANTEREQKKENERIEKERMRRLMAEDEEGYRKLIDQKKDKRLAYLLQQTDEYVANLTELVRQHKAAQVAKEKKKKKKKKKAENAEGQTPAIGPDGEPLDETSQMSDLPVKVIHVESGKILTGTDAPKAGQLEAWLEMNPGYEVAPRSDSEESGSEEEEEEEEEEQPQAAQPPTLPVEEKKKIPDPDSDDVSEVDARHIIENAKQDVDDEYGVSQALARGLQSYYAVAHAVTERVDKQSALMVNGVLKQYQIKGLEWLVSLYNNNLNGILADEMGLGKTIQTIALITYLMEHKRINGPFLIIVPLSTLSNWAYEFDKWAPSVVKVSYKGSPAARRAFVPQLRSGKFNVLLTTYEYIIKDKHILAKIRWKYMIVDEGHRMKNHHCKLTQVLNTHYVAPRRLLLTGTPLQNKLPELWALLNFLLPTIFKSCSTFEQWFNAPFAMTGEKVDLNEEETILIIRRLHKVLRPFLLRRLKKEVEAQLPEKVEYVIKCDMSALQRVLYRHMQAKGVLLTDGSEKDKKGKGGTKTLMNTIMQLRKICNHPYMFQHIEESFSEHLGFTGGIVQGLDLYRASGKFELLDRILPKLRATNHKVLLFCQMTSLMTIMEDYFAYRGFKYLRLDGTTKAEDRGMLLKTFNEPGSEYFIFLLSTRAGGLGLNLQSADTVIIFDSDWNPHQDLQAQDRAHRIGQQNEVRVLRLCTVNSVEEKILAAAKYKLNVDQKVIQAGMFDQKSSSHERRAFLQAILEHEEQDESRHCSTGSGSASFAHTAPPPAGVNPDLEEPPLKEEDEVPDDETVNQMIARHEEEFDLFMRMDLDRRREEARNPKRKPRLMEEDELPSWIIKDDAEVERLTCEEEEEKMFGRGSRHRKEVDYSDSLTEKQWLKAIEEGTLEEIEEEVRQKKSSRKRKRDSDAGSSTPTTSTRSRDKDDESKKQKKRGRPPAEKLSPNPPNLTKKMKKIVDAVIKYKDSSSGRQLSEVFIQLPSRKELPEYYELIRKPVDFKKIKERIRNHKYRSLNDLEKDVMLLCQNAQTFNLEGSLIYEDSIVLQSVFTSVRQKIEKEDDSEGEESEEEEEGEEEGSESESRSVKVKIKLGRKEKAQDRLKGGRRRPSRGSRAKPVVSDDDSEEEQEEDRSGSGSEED

BRM, sequence (P51531 whole entry): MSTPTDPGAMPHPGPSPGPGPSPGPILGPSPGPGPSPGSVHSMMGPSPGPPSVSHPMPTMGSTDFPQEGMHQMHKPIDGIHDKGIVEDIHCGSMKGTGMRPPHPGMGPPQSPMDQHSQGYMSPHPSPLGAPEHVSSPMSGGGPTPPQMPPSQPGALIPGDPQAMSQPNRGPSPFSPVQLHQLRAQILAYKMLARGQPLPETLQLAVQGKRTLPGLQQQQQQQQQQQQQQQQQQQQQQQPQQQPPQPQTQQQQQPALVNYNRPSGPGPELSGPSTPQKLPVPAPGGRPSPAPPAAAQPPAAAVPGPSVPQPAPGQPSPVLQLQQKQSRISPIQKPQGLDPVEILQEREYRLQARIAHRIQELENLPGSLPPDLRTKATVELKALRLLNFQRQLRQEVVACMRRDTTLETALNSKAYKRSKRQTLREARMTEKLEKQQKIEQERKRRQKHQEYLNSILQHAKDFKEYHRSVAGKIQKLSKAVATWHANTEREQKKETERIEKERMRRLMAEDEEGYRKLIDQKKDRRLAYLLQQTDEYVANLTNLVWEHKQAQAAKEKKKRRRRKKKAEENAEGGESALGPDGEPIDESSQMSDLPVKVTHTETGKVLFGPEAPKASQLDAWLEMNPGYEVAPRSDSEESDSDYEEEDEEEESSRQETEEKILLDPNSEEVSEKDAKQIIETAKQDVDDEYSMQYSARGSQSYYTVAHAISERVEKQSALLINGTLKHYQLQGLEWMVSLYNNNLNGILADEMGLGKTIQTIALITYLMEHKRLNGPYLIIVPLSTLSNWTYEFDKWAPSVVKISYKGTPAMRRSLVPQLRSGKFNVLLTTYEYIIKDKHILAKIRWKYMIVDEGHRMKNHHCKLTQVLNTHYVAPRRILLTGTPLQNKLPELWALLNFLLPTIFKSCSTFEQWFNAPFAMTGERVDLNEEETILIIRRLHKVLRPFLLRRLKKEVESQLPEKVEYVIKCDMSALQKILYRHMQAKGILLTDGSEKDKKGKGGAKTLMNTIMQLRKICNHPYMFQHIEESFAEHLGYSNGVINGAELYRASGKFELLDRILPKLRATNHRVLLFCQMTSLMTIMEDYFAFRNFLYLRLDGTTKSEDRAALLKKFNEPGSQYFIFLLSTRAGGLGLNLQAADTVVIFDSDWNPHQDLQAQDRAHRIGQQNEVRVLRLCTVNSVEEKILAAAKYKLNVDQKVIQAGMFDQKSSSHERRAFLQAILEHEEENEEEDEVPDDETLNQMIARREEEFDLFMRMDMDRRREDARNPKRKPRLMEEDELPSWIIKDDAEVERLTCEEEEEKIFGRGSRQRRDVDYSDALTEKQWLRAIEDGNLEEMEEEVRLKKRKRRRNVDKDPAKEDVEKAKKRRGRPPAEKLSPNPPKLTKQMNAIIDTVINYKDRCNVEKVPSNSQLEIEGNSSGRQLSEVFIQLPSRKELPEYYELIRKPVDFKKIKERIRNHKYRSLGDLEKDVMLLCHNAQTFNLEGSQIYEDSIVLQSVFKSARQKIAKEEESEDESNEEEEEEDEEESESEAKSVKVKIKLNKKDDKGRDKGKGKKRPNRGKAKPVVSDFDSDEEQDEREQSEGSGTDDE

| SMILES | BRM Max % Inhibition (BRM) [%] | IC50 (BRM) [µM] | IC50 (BRG-1) [nM] | Emax (BRG-1) [%] |
| --- | --- | --- | --- | --- |
| COc1nn(C)cc1-c1ccc2cnc(CNC(=O)c3ccc4c(c3)[C@](C)(C#N)COC4)cc2c1 [Compound 367] | 102 | < 0.1 | 100 to 500 | 93 |
| C[C@@]1(F)COCc2ccc(C(=O)NCc3cc4cc(-c5cccc(N6CCC6)n5)ccc4cn3)cc21 [Compound 368] | 103 | < 0.1 | 100 to 500 | 96 |
| C[C@@]1(C#N)COCc2ccc(C(=O)NCc3cc4cc(-c5cccc(N6CCC6)n5)ccc4cn3)cc21 [Compound 369] | 104 | < 0.1 | < 100 | 95 |
| C[C@@]1(F)COCc2ccc(C(=O)NCc3cc4cc(-c5cncc(N6CCC6)n5)ccc4cn3)cc21 [Compound 370] | 103 | < 0.1 | 100 to 500 | 96 |
| C[C@@]1(C#N)COCc2ccc(C(=O)NCc3cc4cc(-c5cncc(N6CCC6)n5)ccc4cn3)cc21 [Compound 371] | 104 | < 0.1 | < 100 | 97 |
| C[C@@]1(C#N)COCc2ccc(C(=O)NCc3cc4cc(-c5nccc(N6CCC6)n5)cnc4cn3)cc21 [Compound 372] | 93 | 0.1 to 0.5 | > 1000 | 47 |
| C[C@@]1(C#N)COCc2ccc(C(=O)NCc3cc4nc(-c5cccc(N6CCOCC6)n5)ccc4cn3)cc21 [Compound 373] | 103 | < 0.1 | < 100 | 100 |
| C[C@@]1(C#N)COCc2ccc(C(=O)NCc3cc4nc(-c5cncc(N6CC(F)C6)n5)ccc4cn3)cc21 [Compound 374] | 101 | < 0.1 | 100 to 500 | 94 |
| O=C(NCc1cc2nc(-c3cncc(N4CCC4)n3)ccc2cn1)c1cc(F)c2c(c1)[C@](F)(C(F)F)COC2 [Compound 375] | 100 | < 0.1 | < 100 | 101 |
| C[C@H]1COCCN1c1nccc(-c2ccc3cnc(CNC(=O)c4ccc5c(c4)[C@](C)(C#N)COC5)cc3n2)n1 [Compound 376] | 98 | 0.1 to 0.5 | 500 to 1000 | 79 |
| C[C@@]1(C#N)COCc2ccc(C(=O)NCc3cc4cc(-c5ccnc(N6CCC6)n5)cnc4cn3)cc21 [Compound 377] | 98 | < 0.1 | 500 to 1000 | 89 |
| C[C@@]1(C#N)COCc2ccc(C(=O)NCc3cc4nc(-c5cccc(N6CCCC6=O)n5)ccc4cn3)cc21 [Compound 378] | 100 | < 0.1 | 100 to 500 | 99 |
| C[C@@]1(C#N)COCc2ccc(C(=O)NCc3cc4nc(-c5cccc(C6(O)CC6)n5)ccc4cn3)cc21 [Compound 384] | 101 | < 0.1 | < 100 | 100 |
| C[C@@]1(C#N)COCc2ccc(C(=O)NCc3cc4nc(-c5cccc(N6CCC6=O)n5)ccc4cn3)cc21 [Compound 392] | 100 | < 0.1 | 100 to 500 | 95 |
| C[C@@]1(C#N)COCc2ccc(C(=O)NCc3cc4nc(-c5cccc(N6CCC6=O)c5)ccc4cn3)cc21 [Compound 393] | 99 | < 0.1 | < 100 | 96 |
| COCC1CN(c2cncc(-c3ccc4cnc(CNC(=O)c5ccc6c(c5)[C@](C)(C#N)COC6)cc4n3)n2)C1 [Compound 394] | 101 | < 0.1 | 100 to 500 | 93 |
| C[C@@]1(F)COCc2ncc(C(=O)NCc3cc4nc(-c5cncc(N6CCC6)n5)ccc4cn3)cc21 [Compound 395] | 92 | 0.1 to 0.5 | 500 to 1000 | 62 |
| CC(=O)N(C)c1cccc(-c2ccc3cnc(CNC(=O)c4ccc5c(c4)[C@](C)(C#N)COC5)cc3n2)n1 [Compound 396] | 74 | 0.1 to 0.5 | > 1000 | 32 |
| C[C@@]1(C#N)COCc2ccc(C(=O)NCc3cc4nc(-c5ccnc(C6CCOCC6)n5)ccc4cn3)cc21 [Compound 397] | 93 | 0.1 to 0.5 | 500 to 1000 | 66 |
| C[C@@]1(F)COCc2c(F)cc(C(=O)NCc3cc4nc(-c5cncc(N6CCC6)n5)ccc4cn3)cc21 [Compound 398] | 98 | < 0.1 | 100 to 500 | 91 |
| C[C@@]1(C#N)COCc2c(F)cc(C(=O)NCc3cc4nc(-c5cncc(N6CCC6)n5)ccc4cn3)cc21 [Compound 399] | 100 | < 0.1 | 100 to 500 | 98 |
| C[C@@]1(C#N)COCc2c(F)cc(C(=O)NCc3cc4nc(-c5ccccc5)ccc4cn3)cc21 [Compound 400] | 96 | 0.1 to 0.5 | 500 to 1000 | 68 |

| SMILES | BRM Max % Inhibition (BRM) [%] | IC50 (BRM) [µM] | IC50 (BRG-1) [nM] | Emax (BRG-1) [%] |
| --- | --- | --- | --- | --- |
| C[C@@]1(F)COCc2ccc(C(=O)NCc3cc4nc(-c5cncc(N6CCC6)n5)ccc4cn3)cc21 [Compound 401] | 97 | < 0.1 | 100 to 500 | 91 |
| C[C@@]1(C#N)COCc2ccc(C(=O)NCc3cc4c(cn3)CCN(c3cccc(N5CCC5)n3)C4)cc21 [Compound 402] | 96 | < 0.1 | 500 to 1000 | 74 |
| C[C@@]1(C#N)COCc2ccc(C(=O)NCc3cc4nc(-c5ccnc(N6CC7(COC7)C6)n5)ccc4cn3)cc21 [Compound 403] | 99 | < 0.1 | 100 to 500 | 91 |
| C[C@@]1(C#N)COCc2ccc(C(=O)NCc3cc4nc(-c5cncc(N6CC(F)(F)C6)n5)ccc4cn3)cc21 [Compound 404] | 93 | 0.1 to 0.5 | 100 to 500 | 78 |
| C[C@@]1(C#N)COCc2ccc(C(=O)NCc3cc4nc(-c5cnn6c5OCCC6)ccc4cn3)cc21 [Compound 405] | 85 | 0.1 to 0.5 | 500 to 1000 | 55 |
| C[C@@]1(C#N)COCc2ccc(C(=O)NCc3cc4nc(-c5cncc(C6CC6)n5)ccc4cn3)cc21 [Compound 406] | 100 | < 0.1 | 100 to 500 | 93 |
| CN(C)c1cncc(-c2ccc3cnc(CNC(=O)c4ccc5c(c4)[C@](C)(C#N)COC5)cc3n2)n1 [Compound 407] | 99 | < 0.1 | 100 to 500 | 97 |
| Cc1cncc(-c2ccc3cnc(CNC(=O)c4ccc5c(c4)[C@](C)(C#N)COC5)cc3n2)n1 [Compound 408] | 91 | 0.1 to 0.5 | 500 to 1000 | 65 |
| COC1CN(c2cncc(-c3ccc4cnc(CNC(=O)c5ccc6c(c5)[C@](C)(C#N)COC6)cc4n3)n2)C1 [Compound 409] | 96 | < 0.1 | 100 to 500 | 95 |
| CC(C)(O)c1cccc(-c2ccc3cnc(CNC(=O)c4ccc5c(c4)[C@](C)(C#N)COC5)cc3n2)n1 [Compound 410] | 93 | 0.1 to 0.5 | 500 to 1000 | 75 |
| C[C@@]1(C#N)COCc2ccc(C(=O)NCc3cc4nc(-n5cc(F)cn5)ccc4cn3)cc21 [Compound 411] | 91 | 0.1 to 0.5 | 500 to 1000 | 50 |
| C[C@@]1(C#N)COCc2ccc(C(=O)NCc3cc4nc(-c5ccnc(N6CCC6)c5F)ccc4cn3)cc21 [Compound 412] | 99 | < 0.1 | 100 to 500 | 98 |
| C[C@@]1(F)COCc2ncc(C(=O)NCc3cc4nc(-c5ccccc5)ccc4cn3)cc21 [Compound 413] | 92 | 0.1 to 0.5 | 500 to 1000 | 51 |
| C[C@@]1(C#N)COCc2ccc(C(=O)NCc3cc4nc(-c5cnc(N6CCC6)cn5)ccc4cn3)cc21 [Compound 414] | 91 | 0.1 to 0.5 | 500 to 1000 | 67 |
| C[C@@]1(C#N)COCc2ccc(C(=O)NCc3cc4nc(-c5cncc(N6CCCC6)n5)ccc4cn3)cc21 [Compound 415] | 99 | < 0.1 | < 100 | 95 |
| C[C@@]1(C#N)COCc2ccc(C(=O)NCc3cc4nc(-c5ccnc(N6CCOCC6)n5)ccc4cn3)cc21 [Compound 416] | 99 | < 0.1 | 100 to 500 | 95 |
| C[C@@]1(C#N)COCc2ccc(C(=O)NCc3cc4nc(-c5ccnc(C6CC6)n5)ccc4cn3)cc21 [Compound 417] | 97 | < 0.1 | 100 to 500 | 91 |
| COC1(c2cccc(-c3ccc4cnc(CNC(=O)c5ccc6c(c5)[C@](C)(C#N)COC6)cc4n3)c2)COC1 [Compound 418] | 90 | 0.1 to 0.5 | > 1000 | 51 |
| COC1(c2cccc(-c3ccc4cnc(CNC(=O)c5ccc6c(c5)[C@](C)(C#N)COC6)cc4n3)n2)COC1 [Compound 419] | 93 | 0.1 to 0.5 | 500 to 1000 | 64 |
| C[C@@]1(C#N)COCc2ccc(C(=O)NCc3cc4nc(-c5ccnc(C6CCC6)n5)ccc4cn3)cc21 [Compound 420] | 98 | < 0.1 | 100 to 500 | 89 |
| CN1CC(c2cccc(-c3ccc4cnc(CNC(=O)c5ccc6c(c5)[C@](C)(C#N)COC6)cc4n3)c2)C1 [Compound 421] | 84 | 0.1 to 0.5 | > 1000 | 37 |
